Ends that are not written are not given here.
How the values were obtained:
Assay type in all cases: cell-based
Enterobacter aerogenes = system: Enterobacter aerogenes
From the text: (§1) Bacterial isolates of Escherichia coli, Klebsiella pneumonia, Serratia marcescens, Pseudomonas aeruginosa, Enterobacter cloacae, and Enterobacter aerogenes, which were obtained from clinical cases of bovine mastitis, were used to assess the bactericidal activity of peptides in a broth microdilution assay. Isolates were obtained from repositories at Cornell University (gift of Dr. Y. H. Schukken; Quality Milk Production Services Program, Cornell University, Ithaca N.Y.) and the USDA Beltsville Agricultural Research Center. […] A. J. Bramley, Institute for Animal Health, Compton Laboratory, Newbury, England), which was originally isolated from a clinical case of mastitis ([…]. Dairy Res. 43: 205-211) was also used to assess the bactericidal activity of the peptides in biological fluids. Reference strains of E. coli (ATCC 25922) and Staphylococcus aureus (ATCC 29213) were obtained from a commercial source (American Type Culture Collection (ATCC), Manassas, Va.). To obtain fresh inoculums for evaluation, a sterile loop of each bacterial glycerol stock was streaked on a blood agar plate. After an overnight incubation at 35° C., a single uniform colony was picked and sub-passaged by streaking on a new blood agar plate and incubating the plate overnight at 35° C. To evaluate the antimicrobial activity of the peptides against various clinical mastitis bacterial isolates, the minimum inhibitory concentration (MIC) and the minimum bactericidal concentration (MBC) of these peptides against the isolates were determined using a standardized broth microdilution assay. In addition to the mastitis isolates, E. coli (ATCC 25922) and S. aureus (ATCC 29213) reference strains were evaluated. […] The assays were performed in accordance with Clinical and Laboratory Standards Institute (CLSI) [formerly National Committee for Clinical Laboratory Standards (NCCLS)] guidelines (National Committee for Clinical Laboratory Standards. 1999. Methods for Determining Bacterial Activity of Antimicrobial Agents: Approved Guideline. Wayne, Pa.; National Committee for Clinical Laboratory Standards. 2002. Performance Standards for Antimicrobial Disk and Dilution Susceptibility Tests for Bacteria Isolated from Animals: Approved Standard. 2nd Edition, Wayne, Pa.). […] The bacterial suspension was then diluted 100-fold in cation-adjusted Mueller-Hinton broth to reach a final inoculum concentration of 10^6 CFU/ml. […] A negative control column was included in the plate that included 100 μl of broth alone. The plates were incubated for 18 h at 35° C. with ambient air circulation and without shaking. The wells were subsequently inspected for cloudiness and pellet formation using a magnifying glass plate reader. The lowest concentration at which no pellet or cloudiness was apparent in a given well was identified as the MIC. […] The plates were incubated overnight at 35° C. and colonies subsequently enumerated. The MBC values were determined as the lowest concentration at which ≧99.9% of inoculated bacteria were killed. All assays were performed in triplicate and the MIC and MBC range reported.

E. coli strain P4 [1] = assay: bactericidal activity in serum; settings: for Mean log10 colony forming units: serum, 6 hours at 37° C.
Protocol: (§2) Milk and blood samples were aseptically collected from 8 clinically healthy primiparous Holstein cows in mid-lactation with milk somatic cell counts of <150,000 cells/ml. All cows were determined to be free of intramammary pathogens by the absence of growth on blood agar plates spread with milk samples aseptically collected from each animal on 3 different days. For the preparation of whey, milk samples were centrifuged at 44,000×g at 4° C. for 30 min, and the fat layer removed with a spatula. The skim milk was transferred into another sterile tube, centrifuged for an additional 30 min, and the translucent supernatant collected. Milk and whey samples were pasteurized by heating at 63° C. for 30 min. For the preparation of serum, blood was collected from the coccygeal vein into vacutainer tubes containing gel and clot activator (BD Biosciences) for serum separation. The tubes were inverted ×5, the blood allowed to clot for 30 min, and the tubes centrifuged at 1500×g for 15 min. The clear serum supernatants were aseptically transferred into sterile tubes and heat-inactivated by incubating at 56° C. for 30 min. An aliquot of each sample was plated on blood agar plates and samples that were free of detectable bacterial growth were stored at −20° C.
(§3) Overnight bacterial cultures of E. coli strain P4 grown in trypticase soy broth were diluted 1:1,000 in brain heart infusion broth and incubated at 37° C. for 2 hours while shaking at 225 rpm. The log-phase bacteria were diluted 1:10 in brain heart infusion broth to obtain a final concentration of […]. 0.01 ml of the bacterial inoculum was added to a 1.5 ml sterile microcentrifuge tube containing 0.04 ml of serum, milk, or whey. A 0.05 ml aliquot of either peptide or CBS alone was added to each tube. The samples were then shaken at 100 rpm for 6 hours at 37° C. The sample mixtures were subsequently serially diluted in sterile phosphate-buffered saline and plated on MacConkey agar plates (BD Biosciences). The plates were incubated overnight at 37° C. and the colonies enumerated.
To determine whether bBPI142-169 and bBPI90-99,148-161 retained their bactericidal activity in physiological fluids, the peptides were incubated with E. coli strain P4 (1×10^5 CFU) in the presence of serum (Table 2) or milk (Table 3).

Staphylococcus aureus = assay: microbe, parasite or virus in culture
From the text: as §1

Pseudomonas aeruginosa = assay: microbe, parasite or virus in culture
From the text: as §1

Klebsiella pneumoniae = assay: microbe, parasite or virus in culture
From the text: as §1

Serratia marcescens = assay: microbe, parasite or virus in culture
From the text: as §1

Escherichia coli = assay: microbe, parasite or virus in culture
From the text: as §1

Enterobacter cloacae = assay: microbe, parasite or virus in culture
From the text: as §1

E. coli strain P4 [2] = assay: bactericidal activity in whey; settings: for concentrations at which bactericidal activity was displayed: in the presence of whey; for Mean log10 colony forming units: whey, 6 hours at 37° C.
Protocol: as §2, §3
However, bBPI90-99,148-161 was able to inhibit >99% of the growth of E. coli in milk. Because milk appeared to have an inhibitory effect on the bactericidal activity of bBPI90-99,148-161, the peptides were subsequently evaluated for their ability to retain activity in whey, which is the casein-depleted, protein-rich liquid fraction of milk (Table 4).

“KWKARKNFIKGSSLGWLIQLFRKR [bBPI90-99,148-161]” was tested, and the MBC (Enterobacter aerogenes) was 64 µg/mL, the MIC (Enterobacter aerogenes) was 64 µg/mL and the “concentrations at which bactericidal activity was demonstrated” value (E. coli strain P4 [1]; in the presence of serum) was ≥ 10 µg/mL. The “Mean log10 colony forming units” value (E. coli strain P4 [1]; peptide 0.1 μg/ml) was 8.25 log10 colony forming units, the “Mean log10 colony forming units” value (E. coli strain P4 [1]; peptide 1 μg/ml) was 8.15 log10 colony forming units and the “Mean log10 colony forming units” value (E. coli strain P4 [1]; peptide 10 μg/ml) was 0 log10 colony forming units. The “Mean log10 colony forming units” value (E. coli strain P4 [1]; peptide 100 μg/ml) was 0 log10 colony forming units, the MBC (Staphylococcus aureus) was 64 to 128 µg/mL and the MIC (Staphylococcus aureus) was 64 µg/mL. The “MIC and MBC values” (Pseudomonas aeruginosa) was ≤ 128 µg/mL, the “MIC and MBC values” (Klebsiella pneumoniae) was ≤ 64 µg/mL and the MBC (Serratia marcescens) was >512 µg/mL. The MIC (Serratia marcescens) was >512 µg/mL, the “MIC and MBC values” (Escherichia coli) was ≤ 64 µg/mL and the “MIC and MBC values” (Enterobacter cloacae) was ≤ 64 µg/mL. For the same sequence, the “concentrations at which bactericidal activity was displayed” value (E. coli strain P4 [2]) was ≥ 10 µg/mL, the “Mean log10 colony forming units” value (E. coli strain P4 [2]; peptide 0.1 μg/ml) was 8.17 log10 colony forming units and the “Mean log10 colony forming units” value (E. coli strain P4 [2]; peptide 1 μg/ml) was 7.97 log10 colony forming units. The “Mean log10 colony forming units” value (E. coli strain P4 [2]; peptide 10 μg/ml) was 0 log10 colony forming units and the “Mean log10 colony forming units” value (E. coli strain P4 [2]; peptide 100 μg/ml) was 0 log10 colony forming units.

For “NSQIRPLPDKGLDLSIRDASIKIRGKWKARKNFIK [bBPI65-99]”, the MBC (Enterobacter aerogenes) was >256 µg/mL, the MIC (Enterobacter aerogenes) was >256 µg/mL and the “Mean log10 colony forming units” value (E. coli strain P4 [1]; peptide 0.1 μg/ml) was 8.27 log10 colony forming units. The “Mean log10 colony forming units” value (E. coli strain P4 [1]; peptide 1 μg/ml) was 8.28 log10 colony forming units, the “Mean log10 colony forming units” value (E. coli strain P4 [1]; peptide 10 μg/ml) was 8.23 log10 colony forming units and the “Mean log10 colony forming units” value (E. coli strain P4 [1]; peptide 100 μg/ml) was 8.07 log10 colony forming units. The MBC (Staphylococcus aureus) was >256 µg/mL, the MIC (Staphylococcus aureus) was >256 µg/mL and the MBC (Pseudomonas aeruginosa) was >256 µg/mL. For the same sequence, the MIC (Pseudomonas aeruginosa) was >256 µg/mL, the MBC (Klebsiella pneumoniae) was >256 µg/mL and the MIC (Klebsiella pneumoniae) was >256 µg/mL. The MBC (Serratia marcescens) was >512 µg/mL, the MIC (Serratia marcescens) was >512 µg/mL and the MBC (Escherichia coli) was >256 µg/mL. The MIC (Escherichia coli) was >256 µg/mL, the MBC (Enterobacter cloacae) was >256 µg/mL and the MIC (Enterobacter cloacae) was >256 µg/mL. The “concentrations at which bactericidal activity was displayed” value (E. coli strain P4 [2]) was “neither bBPI65-99 nor bBPI142-169 demonstrated bactericidal activity at any concentration tested”, the “Mean log10 colony forming units” value (E. coli strain P4 [2]; peptide 0.1 μg/ml) was 8.47 log10 colony forming units and the “Mean log10 colony forming units” value (E. coli strain P4 [2]; peptide 1 μg/ml) was 8.26 log10 colony forming units. The “Mean log10 colony forming units” value (E. coli strain P4 [2]; peptide 10 μg/ml) was 8.16 log10 colony forming units and the “Mean log10 colony forming units” value (E. coli strain P4 [2]; peptide 100 μg/ml) was 7.36 log10 colony forming units.

For “VRIHISGSSLGWLIQLFRKRIESLLQKS [bBPI142-169]”, the MBC (Enterobacter aerogenes) was >256 µg/mL, the “Mean log10 colony forming units” value (E. coli strain P4 [1]; peptide 0.1 μg/ml) was 8.42 log10 colony forming units and the “Mean log10 colony forming units” value (E. coli strain P4 [1]; peptide 1 μg/ml) was 8.38 log10 colony forming units. For the same sequence, the “Mean log10 colony forming units” value (E. coli strain P4 [1]; peptide 10 μg/ml) was 8.29 log10 colony forming units, the “Mean log10 colony forming units” value (E. coli strain P4 [1]; peptide 100 μg/ml) was 7.96 log10 colony forming units and the MBC (Staphylococcus aureus) was 128 to 256 µg/mL. For the same sequence, the MIC (Staphylococcus aureus) was 128 to 256 µg/mL, the MBC (Pseudomonas aeruginosa) was >256 µg/mL and the MIC (Pseudomonas aeruginosa) was >256 µg/mL. The MBC (Serratia marcescens) was >512 µg/mL, the MIC (Serratia marcescens) was >512 µg/mL and the MBC (Enterobacter cloacae) was >256 µg/mL. For the same sequence, the MIC (Enterobacter cloacae) was >256 µg/mL, the “concentrations at which bactericidal activity was displayed” value (E. coli strain P4 [2]) was “neither bBPI65-99 nor bBPI142-169 demonstrated bactericidal activity at any concentration tested” and the “Mean log10 colony forming units” value (E. coli strain P4 [2]; peptide 0.1 μg/ml) was 8.29 log10 colony forming units. For the same sequence, the “Mean log10 colony forming units” value (E. coli strain P4 [2]; peptide 1 μg/ml) was 8.44 log10 colony forming units, the “Mean log10 colony forming units” value (E. coli strain P4 [2]; peptide 10 μg/ml) was 8.10 log10 colony forming units and the “Mean log10 colony forming units” value (E. coli strain P4 [2]; peptide 100 μg/ml) was 7.45 log10 colony forming units.
